# Test results: patent US11884662B2, “N-1 branched cycloalkyl substituted imidazo[4,5-c]quinoline compounds, compositions, and methods” (3M INNOVATIVE PROPERTIES COMPANY, priority 2018, dated 2024)
# Experiments:
# [1] = test system: Human dermal adult fibroblast cells; assay: Cell Viability Determination (resazurin); type: cell-based; conditions: human dermal adult fibroblasts, compound 200 micromolar, 24 hours, normalized to untreated vehicle control, n=3
# Protocol: Cell Viability Determination
# Each compound was individually dissolved in DMSO and then in Dulbecco's minimum essential cell culture medium (DMEM, Gibco, Life Technologies) containing 10% fetal bovine serum (Corning Life Sciences, Tewksbury, MA) and 1× antibiotic/antimycotic solution. The final DMSO concentration in a 200 micromolar compound concentration was 0.5%.
# Human dermal adult fibroblast cells (ATCC, Manassas, VA) were seeded (7,500 cells/wells in a 96-well tissue culture polystyrene plate) in 100 microliters of DMEM cell culture medium containing 10% fetal bovine serum and 1× antibiotic/antimycotic solution. After approximately 18-24 hours of incubation in a humidified environment at 37° C. with 5% CO2, the wells were individually treated with one of the compounds in cell culture medium at a compound concentration of 200 micromolar or with 0.5% DMSO in cell culture medium as the vehicle (untreated) control. The cells were then incubated for 24 hours in a humidified environment at 37° C. with 5% CO2. Cell viability was determined using resazurin according to the procedure described by O'Brien, J. et al., European Journal of Biochemistry, 2000, 267(17): 5421-5426. Cell viability was normalized to the vehicle (untreated) cell control. In Table 14, the mean percent cell viability (n=3) is reported for the compounds of Examples 1, 2, 4, 5 and for 1-[(4-amino-1H-imidazo[4,5-c]quinoline-1-yl)methyl] cyclopentanol (the Comparative Example compound).
# [2] = test system: Human peripheral blood mononuclear cells (PBMC); assay: Cytokine Induction in Human Cells; type: cell-based; conditions: 21-24 hours culture, lowest concentration inducing at least 2× negative control; for MEC to Induce Cytokine IFN-alpha: IFN-alpha by ELISA; for MEC to Induce Cytokine IFN-gamma: IFN-gamma by multiplex bead assay; for MEC to Induce Cytokine TNF-alpha: TNF-alpha by multiplex bead assay
# Protocol: Cytokine Induction in Human Cells
# Whole blood was obtained from healthy human donors and collected by venipuncture into vacutainer tubes or syringes containing EDTA. Human peripheral blood mononuclear cells (PBMC) were purified from the whole blood by density gradient centrifugation. Histopaque 1077 (15 mL, Sigma, St. Louis, MO) was transferred to 6×50 mL sterile polypropylene conical tubes. The Histopaque was overlayed with 15-25 mL of blood diluted 1:2 in Hank's Balanced Salts Solution (HBSS) (Gibco, Life Technologies, Grand Island, NY). The tubes were then centrifuged at 1370 rpm for 30 minutes at 20° C., with no brake (400×g, GH 3.8A Rotor).
# The interface (buffy coat) containing the PBMC was collected and placed in a new sterile 50 mL conical polypropylene centrifuge tube. The PBMC were mixed with an equal volume of HBSS (about 20 mL from the interface and about 20 mL of HBSS), and then centrifuged at 1090 rpm, 10 minutes, 20° C., with brake (270×g, GH 3.8A Rotor). After completing centrifugation, the cells were resuspended in 2-3 mL ACK Red blood cell lysis buffer (ammonium chloride potassium solution, Gibco, Life Technologies) and incubated for 2-5 minutes at 20° C. Next, HBSS (40 mL) was added to the cells, and the sample was centrifuged at 270×g for 10 minutes at 20° C. The supernatant was decanted, and the cell pellet was resuspended in 5 mL AIM V Medium (Gibco, Life Technologies). Cell aggregates and debris were removed by filtering the cell solution through a BD Falcon 70 micron nylon cell strainer (BD Biosciences, San Jose, CA).
# The number of viable cells was determined by counting with a Miltenyi FACS instrument (Miltenyi Biotec Inc., San Diego, CA) or by using a hemacytometer. For determining cell viability with a hemacytometer, the cells were diluted 1/10 in 0.4% trypan blue and HBSS (specifically, 50 microliter of trypan blue+40 microliter of HBSS+10 microliter of cell solution were added to a microfuge tube and mixed). Ten microliters of the diluted cells were then applied to the hemacytometer, and the number of viable PBMC were determined by microscopy.
# The PBMC sample was then resuspended in 96-well plates at a concentration of 8×10^5 cells/well in 0.1 mL of AIM-V medium. Each compound was solubilized in DMSO to create a 3 mM stock solution. The stock solution was then further diluted with AIM-V medium to prepare the serial dilutions. The diluted compound (100 microliters) was then transferred to the PBMCs to achieve a testing set with final compound concentrations of 30, 10, 3.3, 1.1, 0.37, 0.12, 0.04, 0.01 micromolar or a testing set with final compound concentrations of 100, 33.3, 11.1, 3.7, 1.2, and 0.4 micromolar. The plates also had both positive and negative controls. The negative control wells contained only AIM-V medium with no example compound. The positive control wells contained a control set of imiquimod serially diluted to concentrations of 30, 10, 3.3, 1.1, 0.37, 0.12, 0.04, 0.01 micromolar or a control set of imiquimod serially diluted to concentrations of 100, 33.3, 11.1, 3.7, 1.2, and 0.4 micromolar. The concentrations used in the control set were selected to match the concentrations used in the testing set. The plates were then cultured at 37° C./5% CO2 for 21-24 hours. Cell-free supernatants were harvested by centrifuging the 96-well plates at 2100 rpm, 23° C. for 10 minutes. Approximately 160 microliters of the supernatant was then stored in a NUNC 96-well plate, covered with the compression cap and stored at −80° C. until the cytokine analysis was done.
# IFN-alpha cytokine levels (picograms/mL) were measured by ELISA (human IFN-alpha, pan specific, Mabtech, Cincinnati, OH). IFN-gamma and TNF-alpha levels (picograms/mL) were measured by multiplex bead assay (magnetic beads, R & D Systems Minneapolis, MN) according to the manufacturer's instructions. […]
Structure (SMILES),Mean Percent Cell Viability [1] [%],MEC to Induce Cytokine IFN-alpha [2] [µM],MEC to Induce Cytokine IFN-gamma [2] [µM],MEC to Induce Cytokine TNF-alpha [2] [µM]
"CC[C@@H](n1cnc2c(N)nc3ccccc3c21)C1(O)CCCC1 [Example 4, 1-[(1R)-1-(4-aminoimidazo[4,5-c]quinolin-1-yl)propyl]cyclopentanol]",86,1.1,1.1,0.37
"C[C@@H](n1cnc2c(N)nc3ccccc3c21)C1(O)CCCC1 [Example 1, 1-[(1R)-1-(4-aminoimidazo[4,5-c]quinolin-1-yl)ethyl]cyclopentanol]",80,3.3,3.3,3.3
"CC[C@@H](n1cnc2c(N)nc3ccccc3c21)C1(O)CCCCC1 [Example 6, 1-[(1R)-1-(4-aminoimidazo[4,5-c]quinolin-1-yl)propyl]cyclohexanol]",–,1.2,1.2,1.2
"C[C@H](n1cnc2c(N)nc3ccccc3c21)C1(O)CCCC1 [Example 2, 1-[(1S)-1-(4-aminoimidazo[4,5-c]quinolin-1-yl)ethyl]cyclopentanol]",81,>30,>30,>30
"CC[C@H](n1cnc2c(N)nc3ccccc3c21)C1(O)CCCC1 [Example 5, 1-[(1S)-1-(4-aminoimidazo[4,5-c]quinolin-1-yl)propyl]cyclopentanol]",78,>30,>30,>30
"C[C@@H](n1cnc2c(N)nc3ccccc3c21)C1(O)CC=CC1 [Example 3, 1-[(1R)-1-(4-aminoimidazo[4,5-c]quinolin-1-yl)ethyl]cyclopent-3-en-1-ol]",–,3.3,3.3,3.3
"Nc1nc2ccccc2c2c1ncn2CC1(O)CCCC1 [Comparative Example, 1-[(4-amino-1H-imidazo[4,5-c]quinoline-1-yl)methyl]cyclopentanol, reference compound]",2.1,10,10,10
